The source of these data is ChEMBL document CHEMBL5465560, “Selectivity Literature for EUbOPEN Chemogenomic Library” (2024).

Test [1] in a line: Selectivity interaction (Ambit KINOMEscan and KiNATiv profiling in Jurkat cells) EUB0000090b CDK2H. Particulars: Selectivity number of off-targets 9; Selectivity number of targets 456; Source Knowledge https://www.nature.com/articles/nchembio.2166; at 1 µM.
Test [2] deals with Dual specificity protein kinase CLK1 (Homo sapiens, UniProt P49759). Particulars: at 10 µM.
Sequence of Dual specificity protein kinase CLK1 (P49759 whole entry, looked up): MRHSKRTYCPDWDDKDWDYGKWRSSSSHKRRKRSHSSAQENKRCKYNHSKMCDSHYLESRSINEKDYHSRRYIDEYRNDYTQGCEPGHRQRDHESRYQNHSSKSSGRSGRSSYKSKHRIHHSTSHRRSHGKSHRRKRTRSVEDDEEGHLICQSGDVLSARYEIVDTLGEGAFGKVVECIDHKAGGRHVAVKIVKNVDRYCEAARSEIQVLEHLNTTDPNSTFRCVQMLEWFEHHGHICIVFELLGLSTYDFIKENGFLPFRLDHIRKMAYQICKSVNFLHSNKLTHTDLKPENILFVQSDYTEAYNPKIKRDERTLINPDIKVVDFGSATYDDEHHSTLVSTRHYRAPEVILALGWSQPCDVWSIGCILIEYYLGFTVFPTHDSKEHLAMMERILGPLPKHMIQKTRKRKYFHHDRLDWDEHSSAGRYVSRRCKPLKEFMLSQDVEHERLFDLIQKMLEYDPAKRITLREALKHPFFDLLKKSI
The target in test [3] is T1, Serine/threonine-protein kinase D3 (Homo sapiens) (UniProt O94806).
T1 sequence (whole entry): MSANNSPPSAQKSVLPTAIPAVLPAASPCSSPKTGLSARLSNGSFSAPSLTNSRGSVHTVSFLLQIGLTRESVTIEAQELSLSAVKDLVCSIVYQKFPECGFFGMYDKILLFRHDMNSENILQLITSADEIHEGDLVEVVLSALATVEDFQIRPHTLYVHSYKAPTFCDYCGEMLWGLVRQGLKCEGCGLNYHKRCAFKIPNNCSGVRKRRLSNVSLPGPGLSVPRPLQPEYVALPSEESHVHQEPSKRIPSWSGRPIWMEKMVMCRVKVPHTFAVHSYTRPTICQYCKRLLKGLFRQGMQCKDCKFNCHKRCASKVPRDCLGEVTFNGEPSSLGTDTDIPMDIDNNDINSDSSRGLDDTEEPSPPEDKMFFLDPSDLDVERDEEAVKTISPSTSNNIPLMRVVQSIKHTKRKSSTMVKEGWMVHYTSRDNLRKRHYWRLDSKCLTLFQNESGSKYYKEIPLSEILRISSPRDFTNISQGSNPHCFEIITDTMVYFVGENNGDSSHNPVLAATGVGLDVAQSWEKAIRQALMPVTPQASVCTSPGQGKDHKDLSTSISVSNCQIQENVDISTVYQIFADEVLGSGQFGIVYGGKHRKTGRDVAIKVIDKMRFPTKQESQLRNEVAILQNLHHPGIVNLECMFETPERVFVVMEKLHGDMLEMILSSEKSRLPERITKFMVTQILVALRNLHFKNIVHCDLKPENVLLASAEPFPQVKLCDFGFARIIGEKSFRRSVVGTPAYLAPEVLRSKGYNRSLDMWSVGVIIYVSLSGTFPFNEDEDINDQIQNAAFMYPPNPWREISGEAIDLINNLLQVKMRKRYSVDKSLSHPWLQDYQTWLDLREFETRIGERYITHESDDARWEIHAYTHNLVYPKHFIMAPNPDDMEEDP
Particulars: at 10 µM.

Test [4] deals with Mitogen-activated protein kinase kinase kinase kinase 4 (Homo sapiens, UniProt O95819). Briefly: Selectivity interaction (KinomeScan (DiscoverX)) EUB0001049a MAP4K4. Particulars: at 1 µM.
Sequence of Mitogen-activated protein kinase kinase kinase kinase 4 (O95819 2-1239 limits assumed): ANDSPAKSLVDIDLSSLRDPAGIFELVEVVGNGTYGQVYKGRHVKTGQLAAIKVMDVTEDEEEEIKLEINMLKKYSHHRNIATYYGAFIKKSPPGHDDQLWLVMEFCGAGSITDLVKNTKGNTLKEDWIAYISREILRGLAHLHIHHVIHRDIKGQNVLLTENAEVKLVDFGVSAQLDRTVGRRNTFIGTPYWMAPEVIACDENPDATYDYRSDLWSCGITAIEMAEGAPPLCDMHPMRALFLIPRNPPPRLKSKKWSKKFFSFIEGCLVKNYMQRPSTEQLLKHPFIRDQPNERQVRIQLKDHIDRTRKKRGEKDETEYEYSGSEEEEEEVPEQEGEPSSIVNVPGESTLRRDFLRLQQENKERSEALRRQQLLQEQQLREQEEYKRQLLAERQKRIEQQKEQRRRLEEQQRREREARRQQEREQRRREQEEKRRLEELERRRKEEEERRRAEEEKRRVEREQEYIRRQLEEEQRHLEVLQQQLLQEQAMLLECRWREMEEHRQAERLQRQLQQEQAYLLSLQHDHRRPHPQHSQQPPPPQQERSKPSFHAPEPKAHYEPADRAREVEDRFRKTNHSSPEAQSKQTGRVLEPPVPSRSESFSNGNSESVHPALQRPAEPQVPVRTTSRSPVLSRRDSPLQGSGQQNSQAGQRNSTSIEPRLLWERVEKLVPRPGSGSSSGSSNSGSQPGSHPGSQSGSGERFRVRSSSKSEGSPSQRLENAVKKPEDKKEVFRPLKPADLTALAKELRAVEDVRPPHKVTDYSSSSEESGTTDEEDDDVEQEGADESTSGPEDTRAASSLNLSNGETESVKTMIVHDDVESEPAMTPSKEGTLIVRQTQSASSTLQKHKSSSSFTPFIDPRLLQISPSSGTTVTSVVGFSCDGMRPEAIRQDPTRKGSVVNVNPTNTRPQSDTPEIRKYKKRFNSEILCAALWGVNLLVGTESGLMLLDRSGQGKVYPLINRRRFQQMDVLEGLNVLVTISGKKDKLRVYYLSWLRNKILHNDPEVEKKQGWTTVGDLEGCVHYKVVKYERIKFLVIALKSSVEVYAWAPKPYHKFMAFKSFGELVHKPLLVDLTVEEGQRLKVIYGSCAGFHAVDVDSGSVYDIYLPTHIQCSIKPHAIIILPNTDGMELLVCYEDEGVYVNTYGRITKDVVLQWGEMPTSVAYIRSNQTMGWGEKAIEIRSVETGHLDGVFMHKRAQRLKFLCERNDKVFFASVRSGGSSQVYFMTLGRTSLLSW
In test [5] the target is Leucine-rich repeat serine/threonine-protein kinase 2 (Homo sapiens, UniProt Q5S007). Briefly: (§1) Selectivity interaction (KinomeScan (DiscoverX)) EUB0000655a LRRK2. To be noted: at 10 µM.
Sequence of Leucine-rich repeat serine/threonine-protein kinase 2 (Q5S007 whole entry): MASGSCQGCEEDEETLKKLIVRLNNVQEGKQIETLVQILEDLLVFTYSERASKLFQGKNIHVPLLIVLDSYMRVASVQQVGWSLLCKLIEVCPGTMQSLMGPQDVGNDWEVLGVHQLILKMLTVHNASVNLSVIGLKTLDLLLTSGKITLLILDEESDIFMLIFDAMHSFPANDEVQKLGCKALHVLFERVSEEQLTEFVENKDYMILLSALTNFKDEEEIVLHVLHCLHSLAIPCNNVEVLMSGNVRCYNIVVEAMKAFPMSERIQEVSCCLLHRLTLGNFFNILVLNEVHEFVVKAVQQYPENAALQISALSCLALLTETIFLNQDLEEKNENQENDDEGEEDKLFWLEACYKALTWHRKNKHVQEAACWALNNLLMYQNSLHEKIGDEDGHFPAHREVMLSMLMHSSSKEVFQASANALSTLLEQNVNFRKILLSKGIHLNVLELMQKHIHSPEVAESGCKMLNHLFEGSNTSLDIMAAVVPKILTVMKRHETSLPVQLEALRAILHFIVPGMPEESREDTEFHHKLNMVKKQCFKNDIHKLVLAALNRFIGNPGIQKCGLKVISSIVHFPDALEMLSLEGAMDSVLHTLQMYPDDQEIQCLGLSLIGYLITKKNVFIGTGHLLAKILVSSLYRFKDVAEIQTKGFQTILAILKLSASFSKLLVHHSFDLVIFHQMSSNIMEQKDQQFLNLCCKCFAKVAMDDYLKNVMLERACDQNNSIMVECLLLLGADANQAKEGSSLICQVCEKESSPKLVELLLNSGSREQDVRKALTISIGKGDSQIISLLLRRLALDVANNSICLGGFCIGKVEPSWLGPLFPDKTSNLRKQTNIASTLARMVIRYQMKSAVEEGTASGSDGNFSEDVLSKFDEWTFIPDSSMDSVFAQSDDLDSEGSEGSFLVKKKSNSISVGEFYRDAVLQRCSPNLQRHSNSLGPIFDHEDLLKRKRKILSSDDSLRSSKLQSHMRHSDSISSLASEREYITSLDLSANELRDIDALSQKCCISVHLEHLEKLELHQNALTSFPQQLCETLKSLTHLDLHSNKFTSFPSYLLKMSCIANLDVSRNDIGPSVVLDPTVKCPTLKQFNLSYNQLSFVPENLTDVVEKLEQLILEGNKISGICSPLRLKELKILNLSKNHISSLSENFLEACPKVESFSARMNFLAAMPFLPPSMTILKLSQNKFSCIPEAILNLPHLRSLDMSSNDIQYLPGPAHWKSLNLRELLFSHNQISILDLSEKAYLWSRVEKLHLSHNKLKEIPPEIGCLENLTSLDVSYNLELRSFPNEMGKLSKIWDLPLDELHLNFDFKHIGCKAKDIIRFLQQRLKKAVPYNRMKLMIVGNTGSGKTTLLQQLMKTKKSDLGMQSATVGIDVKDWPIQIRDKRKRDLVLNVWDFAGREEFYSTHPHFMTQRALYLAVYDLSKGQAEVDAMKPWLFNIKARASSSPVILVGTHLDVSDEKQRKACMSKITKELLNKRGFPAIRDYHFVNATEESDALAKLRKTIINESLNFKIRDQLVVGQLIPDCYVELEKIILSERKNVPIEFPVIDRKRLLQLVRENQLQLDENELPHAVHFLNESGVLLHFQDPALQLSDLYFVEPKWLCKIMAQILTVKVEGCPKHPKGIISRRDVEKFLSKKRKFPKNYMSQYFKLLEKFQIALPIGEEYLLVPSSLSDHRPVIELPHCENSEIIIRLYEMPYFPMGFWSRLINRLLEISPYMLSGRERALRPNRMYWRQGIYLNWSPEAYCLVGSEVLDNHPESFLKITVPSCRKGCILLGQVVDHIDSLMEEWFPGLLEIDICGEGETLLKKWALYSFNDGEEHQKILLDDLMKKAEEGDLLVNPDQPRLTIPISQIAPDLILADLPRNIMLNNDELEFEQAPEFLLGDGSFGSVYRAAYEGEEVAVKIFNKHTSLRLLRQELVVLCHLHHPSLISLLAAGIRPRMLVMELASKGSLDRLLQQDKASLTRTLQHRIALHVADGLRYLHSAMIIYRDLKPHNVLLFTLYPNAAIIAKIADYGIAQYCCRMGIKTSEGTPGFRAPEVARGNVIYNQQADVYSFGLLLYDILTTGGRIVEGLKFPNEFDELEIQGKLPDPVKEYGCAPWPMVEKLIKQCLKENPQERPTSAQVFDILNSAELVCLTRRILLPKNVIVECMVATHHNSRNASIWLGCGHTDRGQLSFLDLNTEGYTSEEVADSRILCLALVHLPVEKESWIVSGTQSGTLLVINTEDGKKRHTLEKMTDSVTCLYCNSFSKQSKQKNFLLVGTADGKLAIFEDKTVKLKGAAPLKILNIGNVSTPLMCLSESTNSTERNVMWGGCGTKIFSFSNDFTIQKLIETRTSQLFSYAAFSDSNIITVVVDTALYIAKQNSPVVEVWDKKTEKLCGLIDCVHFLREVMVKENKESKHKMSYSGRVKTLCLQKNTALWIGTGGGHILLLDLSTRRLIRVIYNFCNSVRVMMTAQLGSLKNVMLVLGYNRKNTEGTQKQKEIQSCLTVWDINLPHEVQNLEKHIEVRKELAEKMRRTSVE
Test [6] relates to Leucine-rich repeat serine/threonine-protein kinase 2 (Homo sapiens), Q5S007 [G2019S]. The test is described as §1. To be noted: at 10 µM.
Sequence of Leucine-rich repeat serine/threonine-protein kinase 2 (Homo sapiens), Q5S007 [G2019S] (Q5S007 whole entry G2019S): as the sequence (Q5S007 whole entry) above, with G2019S counted along it
For test [7], the target named is T2, Mitogen-activated protein kinase 15 (Homo sapiens) (UniProt Q8TD08).
T2 sequence (whole entry): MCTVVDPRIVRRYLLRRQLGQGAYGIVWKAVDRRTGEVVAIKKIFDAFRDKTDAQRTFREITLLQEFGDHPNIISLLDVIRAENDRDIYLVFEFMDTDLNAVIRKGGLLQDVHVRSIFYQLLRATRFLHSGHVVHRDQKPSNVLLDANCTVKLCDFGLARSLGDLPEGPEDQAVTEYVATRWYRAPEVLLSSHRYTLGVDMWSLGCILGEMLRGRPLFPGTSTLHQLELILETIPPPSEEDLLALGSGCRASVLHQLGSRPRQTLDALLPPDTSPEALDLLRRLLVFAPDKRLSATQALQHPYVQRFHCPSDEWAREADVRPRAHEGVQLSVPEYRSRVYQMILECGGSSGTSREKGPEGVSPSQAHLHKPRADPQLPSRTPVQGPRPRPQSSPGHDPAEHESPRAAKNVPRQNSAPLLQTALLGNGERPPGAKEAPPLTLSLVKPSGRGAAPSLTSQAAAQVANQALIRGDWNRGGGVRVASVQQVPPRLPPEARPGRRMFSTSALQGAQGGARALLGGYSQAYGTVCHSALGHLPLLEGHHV
Briefly: Selectivity interaction (KinomeScan (DiscoverX)) EUB0000045b MAPK15.

Test [8] addresses T3, Discoidin domain-containing receptor 2 (Homo sapiens) (UniProt Q16832).
T3 sequence (whole entry): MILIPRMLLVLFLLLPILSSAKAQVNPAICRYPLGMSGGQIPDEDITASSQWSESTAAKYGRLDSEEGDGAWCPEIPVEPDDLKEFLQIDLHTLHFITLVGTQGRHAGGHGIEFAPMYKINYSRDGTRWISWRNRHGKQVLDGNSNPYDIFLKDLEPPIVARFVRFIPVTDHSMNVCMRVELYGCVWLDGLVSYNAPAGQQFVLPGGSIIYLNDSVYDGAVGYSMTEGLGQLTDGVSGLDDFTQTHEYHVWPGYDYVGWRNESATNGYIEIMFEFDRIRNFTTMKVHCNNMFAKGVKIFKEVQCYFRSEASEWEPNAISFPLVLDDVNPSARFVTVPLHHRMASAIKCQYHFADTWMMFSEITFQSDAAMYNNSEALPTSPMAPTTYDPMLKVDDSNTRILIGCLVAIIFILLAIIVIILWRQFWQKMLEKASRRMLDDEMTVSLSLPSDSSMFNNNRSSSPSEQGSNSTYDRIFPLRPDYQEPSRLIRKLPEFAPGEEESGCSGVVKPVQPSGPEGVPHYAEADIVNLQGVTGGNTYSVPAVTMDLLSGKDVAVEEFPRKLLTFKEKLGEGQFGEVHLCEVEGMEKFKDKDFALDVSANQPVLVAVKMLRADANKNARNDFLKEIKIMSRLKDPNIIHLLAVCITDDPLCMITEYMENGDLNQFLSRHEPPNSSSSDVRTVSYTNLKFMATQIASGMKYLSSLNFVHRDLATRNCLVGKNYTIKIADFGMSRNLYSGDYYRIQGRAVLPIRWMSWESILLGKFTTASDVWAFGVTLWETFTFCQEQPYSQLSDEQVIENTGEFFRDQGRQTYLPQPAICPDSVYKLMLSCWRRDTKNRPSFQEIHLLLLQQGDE
The test can be described thus: Selectivity interaction (KinomeScan (DiscoverX)) EUB0000666a DDR2. Particulars: at 10 µM.

Test [9] has as its target Tyrosine-protein kinase CSK (Homo sapiens) (UniProt P41240). Briefly: Selectivity interaction (Kinase panel (Z-LYTE Assay)) EUB0001632a CSK. Particulars: at 10 µM.

Sequence of Tyrosine-protein kinase CSK (Homo sapiens) (P41240 2-450 limits assumed): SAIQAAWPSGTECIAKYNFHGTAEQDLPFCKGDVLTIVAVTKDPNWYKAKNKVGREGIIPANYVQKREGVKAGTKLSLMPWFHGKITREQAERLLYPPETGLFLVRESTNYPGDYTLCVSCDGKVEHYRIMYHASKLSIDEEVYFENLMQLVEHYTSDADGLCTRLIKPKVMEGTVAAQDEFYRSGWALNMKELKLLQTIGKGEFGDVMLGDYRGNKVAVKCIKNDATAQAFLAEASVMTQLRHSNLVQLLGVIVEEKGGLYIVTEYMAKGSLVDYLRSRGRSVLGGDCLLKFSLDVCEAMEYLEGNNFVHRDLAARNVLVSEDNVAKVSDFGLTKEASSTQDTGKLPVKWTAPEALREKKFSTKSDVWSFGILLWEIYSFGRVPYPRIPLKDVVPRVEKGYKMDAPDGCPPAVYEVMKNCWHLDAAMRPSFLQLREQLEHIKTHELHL

For `CN(C)C/C=C/C(=O)Nc1ccc(C(=O)N2CCCC(Nc3ncc(Cl)c(-c4c[nH]c5ccccc45)n3)C2)cc1` (stereo not given), the “% of control” value in test [1] is 100%.
Regarding `CCN(CC)CCCCNc1ncc2cc(-c3cc(OC)cc(OC)c3)c(NC(=O)NC(C)(C)C)nc2n1`, the % of control in test [2] and in test [3] was 100% throughout.
In turn, `COc1cc(Nc2nc(C)cc(-c3cnn4nc(OC)ccc34)n2)cc(C(F)(F)F)c1` registered a % of control in test [4] of 99%.
With `CN(C)CCOc1ccc(-c2nc(-c3ccncc3)c(-c3ccc4c(c3)CC/C4=N\O)[nH]2)cc1`, the % of control in test [5] is 79%; in [6], 76%.
Turning to `C=CC(=O)Nc1cc(-n2c(=O)ccc3cnc4ccc(-c5ccc(NS(C)(=O)=O)cc5)cc4c32)ccc1C`, the % of control in [7] (at 1 µM) and in test [7] (at 10 µM) was 100% in each case.
In the case of `O=C(NOC[C@H](O)CO)c1ccc(F)c(F)c1Nc1ccc(I)cc1F`, the % of control in [8] was determined as 100%.
Molecule `Cn1cc(-n2cnc3c(NCc4nc5cc(Cl)c(Cl)cc5[nH]4)nc(N4CCOCC4)nc32)cn1` registered a % of control in [9] of 10.7%.
